“And” between values parts separate entries of the source, which are not always exact repeats. Identical values can stand only once. “Also recorded” adds a separate entry of the source.
What was measured:
[1] = tested on: kidney tissues of treated or untreated rats; experiment: Real-time qRT-PCR of signature amplicons, validation stage, labeled and un-labeled samples (Table 23); conditions: for H31883_DB71_seg13 normalized qRT-PCR result / MUSCYCG1R_DB81_seg19-20 normalized qRT-PCR result / W41270_DB81_seg11 normalized qRT-PCR result: labeled sample, one line per animal
How it was run: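 Rat kidney RNA, labeled and un-labeled samples, run over seven plates; two amplicons per signature gene (wild-type and splice variant). Values normalized to housekeeping genes, then per plate and amplicon by geometric mean of ratios against a shuffled normalization plate (outliers removed), then scaled.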

[2] = tested on: Sprague-Dawley Crl:CD(SD) rats; experiment: Rat toxicity study, single, 5-day and 28-day treatment (clinical observation, clinical pathology, autopsy, organ weights, histopathology); conditions: for Organ weight: compared with controls;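 as to all read-outs here: control rats received saline intraperitoneally, and the organs examined were adrenals, brain, kidneys, liver, spleen and thymus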
Description: Control animals were treated intraperitoneal with saline.
Randomization and group allocation: prior to treatment, the animals were assigned to the experimental groups based on their body weight. Mean body weight of each group at randomization was not deviate±20% of the mean population weight. Males and females were randomized separately. For the randomization, a computer program was used.
The day before autopsy, urinalysis was performed and blood samples were taken for hematology and clinical chemistry examinations.
On the day of autopsy the animals were anaesthetized with isoflurane, blood was collected for PBMC isolation then subjected to autopsy. Tissues and organs (adrenals, brain, kidneys, liver, spleen and thymus) were weighed and subjected to gross pathological and histopathological examinations.

[3] = day1, female rat kidney, listed as Cis
[4] = day1, male rat kidney, listed as Cis
[5] = day28, female rat kidney, listed as Cis
[6] = day28, male rat kidney, listed as Cis
[7] = labeled samples, day1, kidney of individual male/female rats, listed as Cis
[8] = labeled samples, day5, kidney of individual male/female rats, listed as Cis
[9] = labeled samples, day28, kidney of individual male/female rats, listed as Cis
[10] = labeled samples, day1, kidney of individual male/female rats
[11] = labeled samples, day5, kidney of individual male/female rats
[12] = labeled samples, day28, kidney of individual male/female rats
[13] = 28-day treatment, male and female rats

In the case of `N.N.[Cl][Pt][Cl]` [Cisplatin], the “H31883_DB71_seg13 normalized qRT-PCR result” value [1, 3] is reported as 0.844 and 1.209 and 1.345, the “MUSCYCG1R_DB81_seg19-20 normalized qRT-PCR result” value [1, 3] is reported as 0.631 and 0.788 and 0.899 and the “W41270_DB81_seg11 normalized qRT-PCR result” value [1, 3] is reported as 0.81 and 1.261 and 1.096. The “H31883_DB71_seg13 normalized qRT-PCR result” value [1, 4] was 0.799 and 1.09 and 0.902, the “MUSCYCG1R_DB81_seg19-20 normalized qRT-PCR result” value [1, 4] was 0.495 and 1.64 and 0.811 and the “W41270_DB81_seg11 normalized qRT-PCR result” value [1, 4] was 0.815 and 2.455 and 1.176. For the same compound, the “H31883_DB71_seg13 normalized qRT-PCR result” value [1, 5] was 1.749 and 0.786 and 1.864, the “MUSCYCG1R_DB81_seg19-20 normalized qRT-PCR result” value [1, 5] was 2.301 and 1.555 and 3.336 and the “W41270_DB81_seg11 normalized qRT-PCR result” value [1, 5] was 2.504 and 2.643 and 5.783. For the same compound, the “H31883_DB71_seg13 normalized qRT-PCR result” value [1, 6] was 1.587 and 0.786 and 1.371, the “MUSCYCG1R_DB81_seg19-20 normalized qRT-PCR result” value [1, 6] was 4.504 and 1.428 and 1.753 and the “W41270_DB81_seg11 normalized qRT-PCR result” value [1, 6] was 5.917 and 3.371 and 3.008. For the same compound, the “H31883_DB71_seg13 normalized qRT-PCR expression (Cyclin-G1 (CCNG1) transcript)” value [1, 7] was 0.668 and 0.853 and 1.416 and 2.092 and 2.559 and 1.134, the “MUSCYCG1R_DB81_seg19-20 normalized qRT-PCR expression” value [1, 7] was 0.806 and 1.514 and 1.492 and 3.259 and 2.003 and 1.277 and the “W41270_DB81_seg11 normalized qRT-PCR expression (tumor necrosis factor receptor superfamily, member 12a transcript)” value [1, 7] was 0.679 and 0.759 and 1.331 and 1.029 and 1.224 and 0.496. The “AI045075_DB71_seg6 normalized qRT-PCR expression (Interferon stimulated exonuclease 20 (ISG20) transcript)” value [1, 8] was 1.804 and 1.683 and 4.298 and 1.503 and 0.93 and 1.09, the “H31883_DB71_seg13 normalized qRT-PCR expression (Cyclin-G1 (CCNG1) transcript)” value [1, 8] was 3.816 and 5.526 and 3.771 and 1.509 and 1.642 and 2.695 and the “MUSCYCG1R_DB81_seg19-20 normalized qRT-PCR expression” value [1, 8] was 2.034 and 4.156 and 4.947 and 0.981 and 3.172 and 1.643. For the same compound, the “W41270_DB81_seg11 normalized qRT-PCR expression (tumor necrosis factor receptor superfamily, member 12a transcript)” value [1, 8] was 1.262 and 3.597 and 1.404 and 0.843 and 2.113 and 0.705, the “W64472_DB81_seg2 normalized qRT-PCR expression (Interferon stimulated exonuclease 20 (ISG20) transcript)” value [1, 8] was 1.795 and 3.64 and 6.414 and 1.976 and 1.448 and 1.265 and the “W83813_DB81_seg27 normalized qRT-PCR expression” value [1, 8] was 1.716 and 0.857 and 1.461 and 1.366 and 0.758 and 1.265. The “H31883_DB71_seg13 normalized qRT-PCR expression (Cyclin-G1 (CCNG1) transcript)” value [1, 9] was 4.41 and 2.839 and 2.398 and 2.653 and 5.592 and 3.563, the “MUSCYCG1R_DB81_seg19-20 normalized qRT-PCR expression” value [1, 9] was 3.509 and 3.443 and 1.813 and 3.094 and 7.02 and 3.473 and the “W41270_DB81_seg11 normalized qRT-PCR expression (tumor necrosis factor receptor superfamily, member 12a transcript)” value [1, 9] was 4.741 and 4.104 and 2.053 and 1.904 and 4.516 and 3.866.
Gentamycin was tested, and the “H31883_DB71_seg13 normalized qRT-PCR result” value ([1]; day1, female rat kidney) was 0.963 and 0.98 and 0.898, the “MUSCYCG1R_DB81_seg19-20 normalized qRT-PCR result” value ([1]; day1, female rat kidney) was 1.251 and 0.889 and 2.053 and the “W41270_DB81_seg11 normalized qRT-PCR result” value ([1]; day1, female rat kidney) was 0.763 and 0.963 and 1.408. The “H31883_DB71_seg13 normalized qRT-PCR result” value ([1]; day1, male rat kidney) was 1.02 and 1.409 and 1.161, the “MUSCYCG1R_DB81_seg19-20 normalized qRT-PCR result” value ([1]; day1, male rat kidney) was 1.072 and 1.848 and 1.221 and the “W41270_DB81_seg11 normalized qRT-PCR result” value ([1]; day1, male rat kidney) was 1.567 and 1.869 and 1.48. The “H31883_DB71_seg13 normalized qRT-PCR result” value ([1]; day28, female rat kidney) was 0.421 and 0.441 and 0.434, the “MUSCYCG1R_DB81_seg19-20 normalized qRT-PCR result” value ([1]; day28, female rat kidney) was 0.967 and 2.632 and 1.78 and the “W41270_DB81_seg11 normalized qRT-PCR result” value ([1]; day28, female rat kidney) was 0.806 and 1.079 and 1.164. For the same compound, the “H31883_DB71_seg13 normalized qRT-PCR result” value ([1]; day28, male rat kidney) was 0.852 and 0.857 and 0.756, the “MUSCYCG1R_DB81_seg19-20 normalized qRT-PCR result” value ([1]; day28, male rat kidney) was 1.734 and 3.06 and 1.469 and the “W41270_DB81_seg11 normalized qRT-PCR result” value ([1]; day28, male rat kidney) was 1.55 and 1.353 and 1.245. The “H31883_DB71_seg13 normalized qRT-PCR expression (Cyclin-G1 (CCNG1) transcript)” value [1, 10] was 0.772 and 1.118 and 0.987 and 1.115 and 0.84 and 1.053, the “MUSCYCG1R_DB81_seg19-20 normalized qRT-PCR expression” value [1, 10] was 0.842 and 1.155 and 1.361 and 2.011 and 1.387 and 2.861 and the “W41270_DB81_seg11 normalized qRT-PCR expression (tumor necrosis factor receptor superfamily, member 12a transcript)” value [1, 10] was 1.361 and 1.037 and 0.904 and 1.08 and 2.078 and 0.85. The “Label: true label (Normal/Toxic), known renal toxic effect” value ([1]; labeled samples, day5) was “Toxic”, the “AI045075_DB71_seg6 normalized qRT-PCR expression (Interferon stimulated exonuclease 20 (ISG20) transcript)” value [1, 11] was 1.337 and 1.374 and 1.402 and 1.778 and 1.636 and 1.256 and the “H31883_DB71_seg13 normalized qRT-PCR expression (Cyclin-G1 (CCNG1) transcript)” value [1, 11] was 0.948 and 1.09 and 0.78 and 1.142 and 1.402 and 1.515. For the same compound, the “MUSCYCG1R_DB81_seg19-20 normalized qRT-PCR expression” value [1, 11] was 1.085 and 0.993 and 0.955 and 1.442 and 1.842 and 1.644, the “W41270_DB81_seg11 normalized qRT-PCR expression (tumor necrosis factor receptor superfamily, member 12a transcript)” value [1, 11] was 0.983 and 0.954 and 1.104 and 1.699 and 0.82 and 2.64 and the “W64472_DB81_seg2 normalized qRT-PCR expression (Interferon stimulated exonuclease 20 (ISG20) transcript)” value [1, 11] was 1.733 and 2.048 and 1.962 and 1.427 and 1.403 and 1.53. For the same compound, the “W83813_DB81_seg27 normalized qRT-PCR expression” value [1, 11] was 1.688 and 1.042 and 0.702 and 1.441 and 1.395 and 0.76, the “H31883_DB71_seg13 normalized qRT-PCR expression (Cyclin-G1 (CCNG1) transcript)” value [1, 12] was 0.853 and 0.861 and 0.553 and 0.817 and 0.554 and 0.842 and the “MUSCYCG1R_DB81_seg19-20 normalized qRT-PCR expression” value [1, 12] was 0.863 and 1.072 and 0.617 and 0.865 and 0.729 and 1.661. For the same compound, the “W41270_DB81_seg11 normalized qRT-PCR expression (tumor necrosis factor receptor superfamily, member 12a transcript)” value [1, 12] was 1.614 and 1.342 and 1.315 and 1.194 and 1.188 and 1.941, the Autopsy findings ([2]; 5-day treatment) was “No effect” and the Body weight gain ([2]; 5-day treatment) was “Body weight gain was decreased in females”. The Clinical pathology ([2]; 5-day treatment) was “elevated urea nitrogen levels found in females; also recorded: ♀: ↑↑BUN”, the “Histopathology / renal damage” value ([2]; 5-day treatment) was “No nephrotoxicity was observed; also recorded: No renal damage was found at histopathological examination” and the Organ weight ([2]; 5-day treatment) was “No effect”. For the same compound, the “Body weight and body weight gain” value ([2]; 28-day treatment) was “affected body weight gain of animals in both sexes; also recorded: Effect on body weight and body weight gain was seen”, the Histopathology / nephrotoxicity ([2]; 28-day treatment) was “Signs of nephrotoxicity occurred in all animals of both sexes; also recorded: nephrotoxic effect of the test item was confirmed by histopathology; also recorded: basophilia in the cortex” and the “Decreasing order of nephrotoxicity at histopathological examination” value ([2]; 28-day treatment, females) was “Cisplatin, Cadmium chloride, Gentamycin, Doxorubicin and Tobramycin in females”. For the same compound, the Autopsy findings [2, 13] was “enlarged and discolored kidneys were observed in males; also recorded: Alterations were found in the kidneys; also recorded: ♂♀: ↑↑, pale”, the Organ weight [2, 13] was “Kidney weight increased in both sexes and Increased weights of kidneys in males and Higher weights of kidneys in females and Weights of spleen were higher in Gentamycin treated males and Decreased thymus weights were found in Gentamycin and Tobramycin treated males and ↑↑” and the “Decreasing order of nephrotoxicity at histopathological examination” value ([2]; 28-day treatment, males) was “Cisplatin, Gentamycin, Tobramycin and Doxorubicin in males”.
